Measured values: US8722887B2, “Sulfonylpyrazole and sulfonylpyrazoline carboxamidine derivatives as 5-HT6 antagonists” (Abbvie Bahamas, Ltd., priority 2006, dated 2014)
pKi: −log10 of the molar value.

Test system: not given
Experiment: not given
Conditions: Rogers, 1999; cited from earlier work

| Structure (SMILES) | performance in the Morris water maze |
| --- | --- |
| COc1ccc(NS(=O)(=O)c2sc3ccc(Cl)cc3c2C)cc1N1CCNCC1 [SB-271046] | improved performance |

Test system: not given
Experiment: not given
Conditions: Sleight, 1998; cited from earlier work

| Structure (SMILES) | pharmacokinetics |
| --- | --- |
| CNc1cc(NS(=O)(=O)c2ccc(N)cc2)nc(NC)n1 [Ro 04-6790] | poor |
| CNc1cc(NS(=O)(=O)c2ccc(N)cc2)cc(NC)n1 [Ro 63-0563] | poor |

Test system: not given
Experiment: not given
Conditions: not given

| Structure (SMILES) | melting point [°C] |
| --- | --- |
| CCC1C=NN(/C(=N/S(=O)(=O)c2ccccc2Cl)N2CCNCC2)C1 (centres unmarked) [compound 16] | 162 to 173 |
| CCC1C=NN(/C(N)=N/S(=O)(=O)c2ccc(Cl)cc2)C1 (centres unmarked) [compound 30] | 114 to 115 |
| CCC1CN(/C(N)=N/S(=O)(=O)c2c(Cl)nc3sccn23)N=C1C (centres unmarked) [compound 130] | 139 to 140 |
| CCN/C(=N\S(=O)(=O)c1c(Cl)nc2sccn12)N1CC2(C=N1)CCCC2 [compound 133] | 146 to 147 |
| CCN/C(=N\S(=O)(=O)c1ccc(N)cc1)N1CC(CC)C=N1 (centres unmarked) [compound 134] | 122 to 125 |
| CN1CCN(/C(=N\S(=O)(=O)c2ccc(F)cc2)N2CCC(c3ccc(Cl)cc3)=N2)CC1 [compound 136] | 179 to 184 |
| CN(C)/C(=N\S(=O)(=O)c1ccc(F)cc1)N1CCC(c2ccc(Cl)cc2)=N1 [compound 137] | 149 to 150 |
| CCN/C(=N\S(=O)(=O)c1ccccc1Cl)N1CCC(c2ccccc2)=N1 [compound 138] | 138 to 140 |
| CC1=NN(/C(N)=N/S(=O)(=O)c2cccc(Cl)c2)CC1c1ccccc1 (centres unmarked) [compound 141] | 165 to 166 |
| CCN/C(=N\S(=O)(=O)c1ccccc1Cl)N1N=CCC1c1ccccc1 (centres unmarked) [compound 142] | 164 to 166 |
| CCN/C(=N\S(=O)(=O)c1cccc(Cl)c1)N1N=CCC1c1ccccc1 (centres unmarked) [compound 143] | 124 to 126 |
| CCN/C(=N\S(=O)(=O)N(C)C)N1CC(CC)C=N1 (centres unmarked) [compound 171] | 60 to 61 |

Biological target: T1, 5-HT6 receptor (Homo sapiens, UniProt P50406)
Experiment: In vitro affinity for human 5-HT6 receptors, [3H]-LSD binding in CHO cell membranes
Set-up: host or cells: CHO/Gα16/mtAEQ/h5HT6-A1 (CHO AequoScreen recombinant cell line)
Conditions: [3H]-LSD 5.0 nM, membranes of CHO cells transfected with human 5-HT6; read-out: 5-HT6 pKi (converted)
Method: Affinity for human 5-HT6 receptors was measured in a membrane preparation of CHO-cells transfected with human 5-HT6 receptors by binding studies using [^3H]-N-Methyl-Lysergic acid diethylamide ([^3H]-LSD) as ligand. […] CHO/Gα16/mtAEQ/h5HT6-A1 cells were grown in T-flasks in CHO-S-SFM II medium (Gibco BRL), supplemented with 1% dialysed FCS, 2 mM L-glutamine, Geneticin 500 μg/ml and Zeocin 200 μg/ml. […] After thawing cells were centrifuged during 3 minutes at 1500 g at 4° C. […] The assay was established so as to achieve steady state conditions and to optimize specific binding. For the 5-HT6 receptor, membranes from 5.10^5 cells were incubated with 5.0 nM [^3H]-LSD at 37° C. for 30 minutes. Nonspecific binding was determined using 10^−5 M serotonin. Assays were terminated by vacuum filtration through glass fiber filters (GF/B) which had been pretreated with 0.5% polyethyleneimine. Total and bound radioactivity was determined by liquid scintillation counting. […] Compounds were tested at a 4 log concentration range; all determinations were performed as triplicates. IC50 values were determined by non-linear regression analysis using Hill equation curve fitting. The inhibition constants (Ki-values) were calculated from the Cheng-Preushoff equation: Ki=IC50:(1+L/Kd) wherein L represents the concentration radioligand ([^3H]-LSD) in the assay, and Kd the affinity of the radioligand for the receptor. Results are expressed as pKi-values, means±SD of at least three separate experiments.

T1 sequence (P50406 whole entry): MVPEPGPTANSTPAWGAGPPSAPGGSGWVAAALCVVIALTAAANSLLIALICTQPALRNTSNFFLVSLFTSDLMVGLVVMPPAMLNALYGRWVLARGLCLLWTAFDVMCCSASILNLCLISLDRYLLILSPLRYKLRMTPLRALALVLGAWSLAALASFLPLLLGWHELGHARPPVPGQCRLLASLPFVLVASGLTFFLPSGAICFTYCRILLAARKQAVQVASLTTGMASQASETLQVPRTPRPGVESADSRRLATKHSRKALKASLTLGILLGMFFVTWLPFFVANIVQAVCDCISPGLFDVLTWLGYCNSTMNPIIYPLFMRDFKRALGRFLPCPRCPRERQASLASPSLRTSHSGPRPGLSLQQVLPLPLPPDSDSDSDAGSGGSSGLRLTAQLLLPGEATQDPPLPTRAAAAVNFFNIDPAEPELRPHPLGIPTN

| Structure (SMILES) | Ki [nM] |
| --- | --- |
| CCC1C=NN(/C(=N/S(=O)(=O)c2ccccc2Cl)N2CCNCC2)C1 (centres unmarked) [compound 16] | 200 |
| CCC1CN(/C(N)=N/S(=O)(=O)c2c(Cl)nc3sccn23)N=C1C (centres unmarked) [compound 130] | 79.4 |
| CCN/C(=N\S(=O)(=O)c1c(Cl)nc2sccn12)N1CC2(C=N1)CCCC2 [compound 133] | 1.58 |
| CCN/C(=N\S(=O)(=O)c1ccccc1Cl)N1CCC(c2ccccc2)=N1 [compound 138] | 631 |
| CC1=NN(/C(N)=N/S(=O)(=O)c2cccc(Cl)c2)CC1c1ccccc1 (centres unmarked) [compound 141] | 158 |

Biological target: T1, 5-HT6 receptor
Experiment: not given
Conditions: 5-HT6 receptor (Sleight, 1998); cited from earlier work

| Structure (SMILES) | pKi |
| --- | --- |
| CNc1cc(NS(=O)(=O)c2ccc(N)cc2)nc(NC)n1 [Ro 04-6790] | 7.30 |
| CNc1cc(NS(=O)(=O)c2ccc(N)cc2)cc(NC)n1 [Ro 63-0563] | 7.92 |

Biological target: T1, 5-HT6 receptor
Experiment: In vitro functional activity (antagonism) on human 5-HT6 receptors, CHO-human-5HT6-Aequorin assay
Type: cell-based
Set-up: host or cells: CHO/Gα16/mtAEQ/h5HT6-A1 (CHO AequoScreen recombinant cell line)
Conditions: not given

| Structure (SMILES) | Kb [nM] |
| --- | --- |
| CCN/C(=N\S(=O)(=O)c1ccccc1Cl)N1N=CCC1c1ccccc1 (centres unmarked) [compound 142] | 50.1 |

Same assay, conditions: antagonism of 10^-8 M α-methylserotonin induced luminescence, CHO-human-5HT6-Aequorin cells; read-out: 5-HT6 pA2 (converted)

| Structure (SMILES) | Kb [nM] |
| --- | --- |
| CCC1C=NN(/C(N)=N/S(=O)(=O)c2ccc(Cl)cc2)C1 (centres unmarked) [compound 30] | 1260 |
| CCC1CN(/C(N)=N/S(=O)(=O)c2c(Cl)nc3sccn23)N=C1C (centres unmarked) [compound 130] | 6.31 |
| CCN/C(=N\S(=O)(=O)c1c(Cl)nc2sccn12)N1CC2(C=N1)CCCC2 [compound 133] | 0.158 |
